Assay results from ChEMBL document CHEMBL5625237 (Eur J Med Chem, 2023).

Assays:
[1] = Cytotoxicity against human Calu-3 cells measured after 2 days by MTT assay; assay type: toxicity, cell-based; details: time 2 day
[2] = target: T1, Replicase polyprotein 1ab (Severe acute respiratory syndrome coronavirus 2, UniProt P0DTD1); experiment: (§1) Inhibition of recombinant full length his tagged C-terminal SARS-CoV 2 main protease (M1 to Q307 residues) expressed in Escherichia coli BL21 (DE3) cells using LGSAVLQ-Rh110-dP as peptide substrate preincubated for 1 hr followed by substrate addition and measured after 24 hrs by fluorescence based analysis
[3] = system: SARS-CoV-2; experiment: Antiviral activity against SARS-CoV-2 (nCoV-2019BetaCoV/Wuhan/WIV04/2019) infected in african green monkey Vero E6 cells preincubated with compound for 1 hr followed by viral infection for 2 hrs and measured after 24 hrs post infection by real time PCR analysis; assay type: functional, organism-based; details: Severe acute respiratory syndrome coronavirus 2, nCoV-2019BetaCoV/Wuhan/WIV04/2019, Vero C1008
[4] = Selectivity index, ratio of CC50 for human Calu-3 cells to EC50 for SARS CoV-2 (hCoV-19/Korea/KCDC06/2020) infected in human Calu-3 cells; assay type: toxicity, cell-based; details: read-out: Ratio CC50/EC50
[5] = system: SARS-CoV-2; experiment: Antiviral activity against SARS CoV-2 (hCoV-19/Korea/KCDC06/2020) infected in human Calu-3 cells pre-infected with virus followed by compound addition and measured after 2 days post infection; assay type: functional, organism-based; details: Severe acute respiratory syndrome coronavirus 2, hCoV-19/Korea/KCDC06/2020, Calu-3, 48 h
[6] = target: T1, Replicase polyprotein 1ab; experiment: Inhibition of recombinant full length SARS-CoV-2 main protease expressed in Escherichia coli preincubated for 10 mins followed by substrate addition and measured every 30 secs for 10 mins
[7] = system: SARS-CoV-2; experiment: microbe, parasite or virus in culture; details: Severe acute respiratory syndrome coronavirus 2, USA/NYU-VC-003/2020, A549-ACE2
[8] = target: Replicase polyprotein 1ab (Severe acute respiratory syndrome coronavirus 2) (UniProt P0DTD1); experiment: as §1, with “peptide substrate at 10 uM preincubated for” for “peptide substrate preincubated for”, “based analysis relative to control” for “based analysis”; details: time 25.0 hrs

Row | Compound | IC50 [2] [µM] | also measured
1 | Cc1cn(C(=O)NCCCNC(=O)c2cc3cc(F)ccc3n2CC(C)C)c(=O)[nH]c1=O | 0.7 | CC50 at 48 h [1]: > 100 µM
2 | O=C(NCCCNC(=O)n1cc(F)c(=O)[nH]c1=O)c1cc2ccccc2n1Cc1ccccc1 | 5.1 | 
3 | CCCCCCNC(=O)n1cc(Cl)c(=O)[nH]c1=O | 5.5 | 
4 | CCCCCCNC(=O)n1cc(C(F)(F)F)c(=O)[nH]c1=O | 7.4 | 
5 | CC(C)(C)CC(=O)N1CCC(CCCNC(=O)n2cc(F)c(=O)[nH]c2=O)CC1 | 1.7 | CC50 at 48 h [1]: 99 µM; EC50 [3]: 0.53 µM; selectivity ratio [4]: 8.3; EC50 [5]: 12 µM; IC50 [6]: 0.053 µM
6 | O=C(NCCCNC(=O)n1cc(F)c(=O)[nH]c1=O)c1ccc2cc[nH]c2c1 | 2.4 | 
7 | CC(C)Cn1c(C(=O)NCCCNC(=O)n2cc(F)c(=O)[nH]c2=O)cc2cc(OC(F)(F)F)ccc21 | 2.5 | 
8 | CC(C)Cn1c(C(=O)NCCCNC(=O)n2cc(F)c(=O)[nH]c2=O)cc2cc(C(F)(F)F)ccc21 | 0.79 | 
9 | COc1cccc2[nH]c(C(=O)N[C@@H](CC(C)C)C(=O)N[C@@H](C[C@@H]3CCNC3=O)C(=O)CO)cc12 [PF-00835231] |  | EC50 [7]: 0.221 µM
10 | O=C(NCCC1CCCCC1)n1cc(F)c(=O)[nH]c1=O | 4.9 | 
11 | CCCCCCNC(=O)n1cc(F)c(=O)[nH]c1=O [CARMOFUR] |  | CC50 at 48 h [1]: > 100 µM; EC50 [5]: > 100 µM
12 | CC(C)C[C@H](CNC(=O)c1cc2ccccc2[nH]1)CNC(=O)n1cc(F)c(=O)[nH]c1=O | 4.4 | 
13 | O=C(NCCCC1CCNCC1)n1cc(F)c(=O)[nH]c1=O |  | inhibition [8]: 19%
14 | O=C(NCCCc1ccccc1)n1cc(F)c(=O)[nH]c1=O |  | inhibition [8]: 27%
15 | O=C(NCCCNC(=O)n1cc(F)c(=O)[nH]c1=O)c1cc2ccccc2[nH]1 | 2.6 | 
16 | O=C(NCCCC1CCCCC1)n1cc(F)c(=O)[nH]c1=O | 3.3 | 
17 | CCn1c(C(=O)NCCCNC(=O)n2cc(F)c(=O)[nH]c2=O)cc2ccccc21 | 1.9 | 
18 | CCCCCCNC(=O)n1cc(C)c(=O)[nH]c1=O | 7.6 | 
19 | O=C(Cc1ccccc1)N1CCC(CCCNC(=O)n2cc(F)c(=O)[nH]c2=O)CC1 | 3.9 | 
20 | CC(C)(C)OC(=O)N1CCC(CCCNC(=O)n2cc(F)c(=O)[nH]c2=O)CC1 | 3.4 | 

Row | Compound | IC50 [2] [µM] | also measured
21 | CC(C)Cn1c(C(=O)NCCCNC(=O)n2ccc(=O)[nH]c2=O)cc2cc(Cl)ccc21 | 1.6 | CC50 at 48 h [1]: > 100 µM
22 | O=C(NCCCCc1ccccc1)n1cc(F)c(=O)[nH]c1=O | 3.9 | 
23 | Cc1ccc2c(c1)cc(C(=O)NCCCNC(=O)n1cc(F)c(=O)[nH]c1=O)n2CC(C)C | 1.2 | 
24 | O=C(CC1CCCCC1)N1CCC(CCCNC(=O)n2cc(F)c(=O)[nH]c2=O)CC1 | 4.5 | EC50 [3]: 0.72 µM; IC50 [6]: 0.04 µM
25 | O=C(NCCCCCCc1ccccc1)n1cc(F)c(=O)[nH]c1=O | 3.8 | 
26 | CC(C)Cn1c(C(=O)NCCCNC(=O)n2cc(F)c(=O)[nH]c2=O)cc2ccccc21 | 0.97 | 
27 | O=C(NCCC1CCCC1)n1cc(F)c(=O)[nH]c1=O | 4.6 | CC50 at 48 h [1]: > 100 µM; selectivity ratio [4]: > 2; EC50 [5]: 49 µM
28 | Cc1cn(C(=O)NCCCNC(=O)c2cc3cc(Cl)ccc3n2CC(C)C)c(=O)[nH]c1=O | 1.3 | CC50 at 48 h [1]: > 100 µM
29 | O=C(c1ccc2cc[nH]c2c1)N1CCC(CCCNC(=O)n2cc(F)c(=O)[nH]c2=O)CC1 | 3.1 | 
30 | CCCCCCNC(=O)n1ccc(=O)[nH]c1=O | 9.8 | 
31 | CCC(CC)COC(=O)[C@H](C)N[P@](=O)(OC[C@H]1O[C@@](C#N)(c2ccc3c(N)ncnn23)[C@H](O)[C@@H]1O)Oc1ccccc1 |  | CC50 at 48 h [1]: > 100 µM; selectivity ratio [4]: > 172; EC50 [5]: 0.58 µM
32 | CCCCCCNC(=O)n1cc(CC)c(=O)[nH]c1=O | 6.2 | 
33 | CC(C)Cn1c(C(=O)NCCCNC(=O)n2ccc(=O)[nH]c2=O)cc2cc(F)ccc21 | 0.57 | CC50 at 48 h [1]: > 100 µM
34 | CCCCCCNC(=O)n1cc(Br)c(=O)[nH]c1=O | 7.4 | 
35 | COc1ccc2c(c1)cc(C(=O)NCCCNC(=O)n1cc(F)c(=O)[nH]c1=O)n2CC(C)C | 1.4 | 
36 | CC(C)Cn1c(C(=O)NCCCNC(=O)n2cc(F)c(=O)[nH]c2=O)cc2cc(F)ccc21 | 0.37 | CC50 at 48 h [1]: 98 µM; selectivity ratio [4]: 3.3; EC50 [5]: 29 µM
37 | Cn1ccc2ccc(C(=O)NCCCNC(=O)n3cc(F)c(=O)[nH]c3=O)cc21 | 3.8 | 
38 | Cn1c(C(=O)NCCCNC(=O)n2cc(F)c(=O)[nH]c2=O)cc2ccccc21 | 1.5 | 
39 | CC(C)Cn1c(C(=O)NCCCNC(=O)n2cc(F)c(=O)[nH]c2=O)cc2cc(Cl)ccc21 | 0.35 | CC50 at 48 h [1]: > 100 µM; selectivity ratio [4]: > 5.5; EC50 [5]: 18 µM
40 | O=C(NCCCCC1CCCCC1)n1cc(F)c(=O)[nH]c1=O |  | inhibition [8]: 31%
